The text below walks through data of patent US5869492A, “Condensed thiazole derivatives, having 5-HT receptor affinity” (priority 1995, dated 1999).

As a reminder, the Ki is the equilibrium dissociation constant of an inhibitor or competing ligand from its target.

Counter-ions that a name gives are not always drawn. Like-named read-outs stand apart in the source and are kept apart here.

In one assay the target is T1, 5-HT1A receptors (Rattus norvegicus, UniProt P19327).
T1 construct: Hippocampal tissue from the brains of male Sprague-Dawley rats; from tissue; host or cells: hippocampal membranes of male Sprague-Dawley rats (Charles River)
T1 sequence (P19327 1-422): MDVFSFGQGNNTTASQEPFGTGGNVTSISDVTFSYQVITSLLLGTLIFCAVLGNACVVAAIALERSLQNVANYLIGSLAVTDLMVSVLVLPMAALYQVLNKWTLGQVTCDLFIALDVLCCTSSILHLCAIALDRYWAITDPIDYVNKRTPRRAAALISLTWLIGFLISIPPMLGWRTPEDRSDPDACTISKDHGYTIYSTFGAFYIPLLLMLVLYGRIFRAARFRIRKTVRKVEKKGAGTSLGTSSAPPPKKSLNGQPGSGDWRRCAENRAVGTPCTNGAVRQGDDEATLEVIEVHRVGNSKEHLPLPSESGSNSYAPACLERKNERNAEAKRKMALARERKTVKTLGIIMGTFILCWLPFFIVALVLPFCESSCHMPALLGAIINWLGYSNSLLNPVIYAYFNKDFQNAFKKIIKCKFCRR
The assay is described as follows: [3H]8-OH-DPAT binding to 5-HT1A receptors in rat hippocampal membranes. The settings on record: for Ki: [3H]8-OH-DPAT 2 nM, rat hippocampal membranes, mean of three determinations unless marked.

The target in assay [1] is T2, 5-hydroxytryptamine (5-HT) reuptake sites (Rattus norvegicus, UniProt P31652).
T2 construct: Frontal cortical tissue from the brains of male Sprague-Dawley rats; from tissue; host or cells: crude frontal cortical synaptosomes of male Sprague-Dawley rats (Charles River)
T2 sequence (P31652 whole entry): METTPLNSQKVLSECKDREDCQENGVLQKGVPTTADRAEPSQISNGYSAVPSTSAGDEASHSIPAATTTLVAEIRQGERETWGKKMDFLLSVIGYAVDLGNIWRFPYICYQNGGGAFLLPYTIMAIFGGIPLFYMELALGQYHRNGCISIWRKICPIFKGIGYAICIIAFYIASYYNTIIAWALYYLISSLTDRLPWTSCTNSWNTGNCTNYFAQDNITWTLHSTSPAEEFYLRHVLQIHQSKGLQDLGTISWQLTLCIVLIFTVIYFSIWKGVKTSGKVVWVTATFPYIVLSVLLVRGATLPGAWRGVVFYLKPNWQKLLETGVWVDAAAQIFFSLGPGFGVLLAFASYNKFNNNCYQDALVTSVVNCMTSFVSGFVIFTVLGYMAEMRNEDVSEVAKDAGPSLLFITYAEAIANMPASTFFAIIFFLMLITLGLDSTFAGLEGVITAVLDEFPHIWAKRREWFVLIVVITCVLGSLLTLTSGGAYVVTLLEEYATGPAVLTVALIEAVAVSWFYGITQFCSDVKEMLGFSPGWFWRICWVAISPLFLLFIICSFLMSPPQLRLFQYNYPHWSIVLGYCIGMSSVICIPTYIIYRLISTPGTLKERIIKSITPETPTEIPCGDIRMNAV
The assay is described as follows: [3H]5-HT uptake into rat frontal cortical synaptosomes. In kind it is biochemical. How it is done:
Frontal cortical tissue from the brains of male Sprague-Dawley rats (Charles River; weight range 150-250 g) was homogenised in ice-cold 0.32M sucrose (1:10 w/v) using a motor driven teflon pestle (difference in diameter between mortar and pestle 0.5 mm). Nuclei and cell debris were removed by centrifugation at 1,500 g at 4° C. for 10 minutes. The pellet (P1) was discarded and the supernatant centrifuged at 30,000 g at 4° C. for 10 minutes. The crude synaptosomal pellet (P2) was resuspended in Krebs-Henseleit buffer (equivalent to 8.3 mg wet weight of tissue/ml).
Crude synaptosomes were incubated in a shaking water bath at 37° C. for 15 minutes. Aliquots (150 μl; equivalent to 1.25 mg wet weight of tissue/tube) were then added to tubes containing 275 μl of Krebs-Henseleit buffer and 50 μl of Krebs-Henseleit buffer (total uptake) or 50 μl of test compound (at a single concentration of 10^-6 M or at 10 concentrations ranging from 10^-11 -10^-3 M) or 50 μl of zimeldine (10^-5 M; non-specific uptake). Uptake was initiated by the addition of 25 μl of freshly prepared [^3 H]5-HT (2 nM), followed by vortexing, and was continued for 5 minutes at 37° C. in the shaking water bath. Uptake was terminated by filtration under vacuum through Skatron 11734 filters using a Skatron cell harvester. Filters were then washed with 8 ml ice-cold saline. The scored filter paper discs were punched into vials, scintillation fluid added and radioactivity determined by liquid scintillation counting.
For both the 5-HT uptake and noradrenaline uptake tests, the percentage inhibition of specific uptake of the tritiated ligand was calculated for the single concentration (10^-6 M) of test compound. Inhibition curves were then produced for those compounds which inhibited ≥50% of specific uptake of the tritiated ligand at 10 ^-6 M using a range of concentrations of test compound. The concentration which gave 50% inhibition of specific uptake (IC50) was obtained from the curve. The inhibition constant (Ki) was then calculated using the formula [formula] in which [ligand] is the concentration of tritiated ligand used and Km is the affinity of the uptake site for the ligand.

The target in assay [2] is T3, noradrenaline reuptake sites (Rattus norvegicus, UniProt Q63380).
T3 construct: Frontal cortical tissue from the brains of male Sprague-Dawley rats; from tissue; host or cells: crude frontal cortical synaptosomes of male Sprague-Dawley rats (Charles River)
T3 sequence (Q63380 1-617): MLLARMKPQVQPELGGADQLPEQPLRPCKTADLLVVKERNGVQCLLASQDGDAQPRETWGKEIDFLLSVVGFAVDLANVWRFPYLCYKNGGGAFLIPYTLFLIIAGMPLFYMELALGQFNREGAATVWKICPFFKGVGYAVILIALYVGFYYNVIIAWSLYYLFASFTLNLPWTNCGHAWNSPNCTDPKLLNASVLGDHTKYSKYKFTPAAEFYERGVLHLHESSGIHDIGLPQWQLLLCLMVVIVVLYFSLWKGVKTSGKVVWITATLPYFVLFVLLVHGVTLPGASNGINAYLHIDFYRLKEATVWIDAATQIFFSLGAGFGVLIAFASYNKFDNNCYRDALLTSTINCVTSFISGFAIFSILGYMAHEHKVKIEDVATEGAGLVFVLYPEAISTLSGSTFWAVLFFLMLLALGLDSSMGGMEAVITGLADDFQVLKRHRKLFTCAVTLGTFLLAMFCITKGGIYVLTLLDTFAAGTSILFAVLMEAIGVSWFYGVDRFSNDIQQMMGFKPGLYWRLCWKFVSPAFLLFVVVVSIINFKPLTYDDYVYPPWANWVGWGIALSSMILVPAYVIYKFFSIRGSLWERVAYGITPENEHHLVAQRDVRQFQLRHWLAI
The experiment in a line: [3H]noradrenaline uptake into rat frontal cortical synaptosomes. In kind it is biochemical. The following applies: [3H]noradrenaline 10 nM, mean of three determinations unless marked (** one), read-out: NA uptake Ki.
Method: Frontal cortical tissue from the brains of male Sprague-Dawley rats (Charles River; weight range 150-250 g) was homogenised in ice-cold 0.32M sucrose (1:10 w/v) using a motor driven teflon pestle (difference in diameter between mortar and pestle 0.5 mm). Nuclei and cell debris were removed by centrifugation at 1,500 g at 4° C. for 10 minutes. The pellet (P1) was discarded and the supernatant centrifuged at 30,000 g at 4° C. for 10 minutes. The crude synaptosomal pellet (P2) was resuspended in Krebs-Physiological buffer (equivalent to 16.7 mg wet weight of tissue/ml).
Crude synaptosomes were incubated in a shaking water bath at 37° C. for 15 minutes. Aliquots (150 μl; equivalent to 2.5 mg wet weight of tissue/tube) were then added to tubes containing 275 μl of Krebs-Physiological buffer and 50 μl of Krebs-Physiological buffer (total uptake) or 50 μl of test compound (at a single concentration of 10^-6 M or 10 concentrations ranging from 10^-11 -10^-3 M) or 50 μl of desipramine (10^-5 M; non-specific uptake). Uptake was initiated by the addition of 25 μl of freshly prepared [^3 H]noradrenaline (10 nM), followed by vortexing and was continued for 5 minutes at 37° C. in the shaking water bath. Uptake was terminated by filtration under vacuum through Whatman GF/B filters using a Brandell cell harvester. Filters were then washed with 8 ml ice-cold saline. The scored filter paper discs were placed into vials, scintillation fluid added and radioactivity determined by liquid scintillation counting.

[3] abbreviates: [3H]5-HT 2 nM, rat frontal cortical synaptosomes, mean of three determinations unless marked (* two), read-out: 5-HT uptake Ki.

Method for 5-HT1A receptors: Hippocampal tissue from the brains of male Sprague-Dawley rats (Charles River; weight range 150-250 g) was homogenised in ice-cold 50 mM Tris-HCl buffer (pH 7.7 when measured at 25° C., 1:40 w/v) and centrifuged at 30,000 g at 4° C. for 10 minutes. The pellet was rehomogenised in the same buffer, incubated at 37° C. for 10 minutes and centrifuged at 30,000 g at 4° C. for 10 minutes. The final pellet was resuspended in 50 mM Tris-HCI buffer (pH 7.7) containing 4 mM CaCl2, 0.1% L-ascorbic acid and 10 μM pargyline hydrochloride (equivalent to 6.25 mg wet weight of tissue/ml) and used immediately in the binding assay.
Aliquots (400 μl; equivalent to 2.5 mg wet weight of tissue/tube) of this membrane preparation were added to tubes containing [^3 H]8-hydroxy-2-(dipropylamino)tetralin ([^3 H]8-OH-DPAT; 50 μl; 2 nM) and distilled water (50 μl; total binding) or 5-HT (50 μl; 10 μM; non-specific binding) or test compound (50 μl; at a single concentration of 10^-6 M or at 10 concentrations ranging from 10^-11 -10^-3 M) and incubated at 25° C. for 30 minutes. The incubation was terminated by rapid filtration under vacuum through Skatron 11734 filters using a Skatron Cell Harvester. Filters were washed with ice-cold 50 mM Tris-HCl buffer, pH 7.7 (at 25° C., wash setting 9,9,0) and dried. The scored filter paper discs were punched out into vials, scintillation fluid added and radioactivity determined by liquid scintillation counting.
The percentage displacement of specific binding of the tritiated ligand was calculated for the single concentration (10^-6 M) of test compound. Displacement curves were then produced for those compounds which displaced ≥50% of specific binding of the tritiated ligand at 10^-6 M using a range of concentrations of the compound. The concentration which gave 50% inhibition of specific binding (IC50) was obtained from the curve. The inhibition coefficient Ki was then calculated using the formula [formula] in which [ligand] is the concentration of the tritiated ligand used and KD is the equilibrium dissociation constant for the ligand.

In the case of `C1=C(c2coc3ccccc23)N2CCN=C2S1` [Example 3, 3-(benzo[b]furan-3-yl)-5,6-dihydroimidazo[2,1-b]thiazole monohydrobromide monohydrate], the inhibition constant Ki came out at 0.118 µM on 5-HT1A receptors, 0.084 µM in assay [1] and 0.041 µM in assay [2].
For `COc1ccc2scc(C3=CSC4=NCCN34)c2c1` [Example 6, 3-(5-methoxybenzo[b]thiophen-3-yl)-5,6-dihydroimidazo[2,1-b]thiazole monohydrobromide], in that order: 0.0375 µM, 0.022 µM and 0.051 µM.
For `Clc1ccc2scc(C3=CSC4=NCCN34)c2c1` [Example 5, 3-(5-chlorobenzo[b]thiophen-3-yl)-5,6-dihydroimidazo[2,1-b]thiazole monohydrobromide], in that order: 0.0407 µM, 0.0087 µM and 0.013 µM.
Turning to `C1=C(c2csc3ccccc23)N2CCCN=C2S1` [Example 2, 3-(benzo[b]thiophen-3-yl)-6,7-dihydro-5H-thiazolo[3,2-2a]pyrimidine], the Ki at 5-HT1A receptors amounted to 0.34 µM; in assay [1] (setting [3]), 0.305 µM; in assay [2] it was 0.04 µM.
In the same order, the values of `C1=C(c2coc3ccccc23)N2CCCN=C2S1` [Example 4, 3-(benzo[b]furan-3-yl)-6,7-dihydro-5H-thiazolo[3,2-a]pyrimidine] are 0.321 µM, 0.881 µM and 0.116 µM.
Take `C1=C(c2csc3ccccc23)N2CCN=C2S1` [Example 1, 3-(benzo[b]thiophen-3-yl)-5,6-dihydroimidazo[2,1-b]thiazole monohydrobromide dihydrate]: the results for the Ki (at 5-HT1A receptors; in assay [1]; in assay [2]) were 0.081 µM, 0.0127 µM and 0.0028 µM, respectively.
In the case of `Fc1ccc2scc(C3=CSC4=NCCN34)c2c1` [Example 7, 3-(5-fluorobenzo[b]thiophen-3-yl)-5,6-dihydroimidazo[2,1-b]thiazole monohydrobromide], the inhibition at 1 µM at 5-HT1A receptors (single concentration 10^-6 M, [3H]8-OH-DPAT, * mean of two determinations, read-out: 5-HT1A % displacement at 10^-6 M) amounted to 66%. In addition, the Ki came to 0.036 µM in assay [1] and 0.0054 µM in assay [2].
As to `N#Cc1ccc2scc(C3=CSC4=NCCN34)c2c1` [Example 8, 3-(5,6-dihydroimidazo[2,1-b]thiazol-3-yl)benzo[b]thiophen-5-carbonitrile monohydrobromide], the Ki was 0.467 µM at 5-HT1A receptors and 0.53 µM in assay [1].
